Data as given in patent publication US11466066B2, “Variants of human BMP7 protein” (ELI LILLY AND COMPANY, priority 2017, dated 2022).

B1: Human mature BMP7 protein variant F9 (SEQ ID NO: 8): homodimer wherein each monomeric subunit has SEQ ID NO: 8 (Y65G/I86L/F93V/N110G/Y128W), disulfide linked (protein)
chain: STGSKQRSQNRSKTPKNQEALRMANVAENSSSDQRQACKKHELYVSFRDLGWQDWIIAPEGYAAGYCEGECAFPLNSYMNATNHALVQTLVHVINPETVPKPCCAPTQLGAISVLYFDDSSNVILKKWRNMVVRACGCH
modifications: homodimer, disulfide linked

Columns and labels:
3T3-L1 fibroblasts = experiment: Alkaline phosphatase stimulation in 3T3-L1 cells; assay type: cell-based; conditions: 1 μg/ml pro-BMP7, 1 μM ATRA, 48 hours
Method: 3T3-L1 fibroblasts and MFc7 mouse renal myofibroblasts may be grown essentially as described in Example 2 above. After 48 hours the cells may be washed with PBS prior to the addition of either DMEM/2% dialyzed FBS or OPTI-MEM/2% dialyzed FBS medium containing control vehicle, 1 μg/ml human proBMP7 protein, 1 μM ATRA or a combination of both human BMP7 protein (1 μg/ml) and ATRA (1 μM) may be added for 48 hours. After treatment the cells may be rinsed with PBS and stored at −80° C. for approximately 20 minutes. The cells may be thawed at 37° C. for 30 minutes and 100 μl of PNPP may be added to every well. The plate may be incubated at 37° C. for 1 hour. The absorbance at 405 nm may be read on a plate reader.

DLD1 C5 tumor xenografts = experiment: DLD1 C5 mouse xenograft tumor model; assay type: in vivo; conditions: F9 IP 0.04 mg/kg MWF for 3 weeks followed by 3 weeks irinotecan 20 mg/kg M and Th
Method: Female athymic nude mice age 6- to 7-weeks old are available commercially, including from Harlan Laboratories (Indianapolis, Ind.). The mice are allowed to acclimate for one week and fed ad libitum on a normal low fat (4.5%) diet, which may be continued for the duration of the study. Tumor cells are available for purchase from ATCC and may be cultured in cell culture media such as RPMI 1640 (Life Technologies) with L-glutamine, 25 mM HEPES supplemented with 10% FBS and 1 mM Na Pyruvate. Cells may be detached, washed with serum free medium and then resuspended at a final concentration of 50×10^6 cells/mL in serum free RPMI 1640. Tumor cells, approximately 5×106 may be injected subcutaneously in the rear flank of subject mice in a 1:1 mixture of serum free growth medium and Matrigel (Becton Dickinson, Bedford, Mass.). Tumor and body weight measurements may be performed twice weekly. Prior to treatment, mice can be randomized based on tumor size using a randomization algorithm. Treatments may be started when the average tumor volume reaches 100 mm3. […]
All test or control proteins are prepared in phosphate Buffered Saline (PBS) prior to dose. Tumor size may be determined by caliper measurements. […] Log volume data can be analyzed with two-way repeated measures ANOVA by time and treatment using SAS PROC MIXED software (SAS Institutes Inc, Cary, N.C.). […]

Molecule	fold change in alkaline phosphatase stimulation relative to control vehicle treated cells (3T3-L1 fibroblasts) [fold]	tumor response (DLD1 C5 tumor xenografts)
Wild type human pro-BMP7: homodimers of wild type human mature BMP7 in a non-covalent complex with wild type human pro-domain [reference compound]	1.2	
B1		tumor regression
